Test results as given in patent publication EP4745134A1 (Jiangsu Yahong Meditech Co., Ltd., priority 2023, dated 2025).

Experiments:
PRMT5-MTA = PRMT5-MTA (Homo sapiens, UniProt O14744); test: Enzymatic inhibitory activity against PRMT5-MTA (AlphaScreen); format: biochemical; settings: read-out: IC50
In short: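 PRMT5/[…] (1 nM) was preincubated for 30 min at room temperature with 1 µM […] and 2.5 µM SAM, then exposed to compound (10-point, 3-fold from 1000 nM) for 15 min at 23 °C. Histone H4 substrate (5 nM) was added and reacted for 45 min at 23 °C. Symmetric dimethyl-R3 H4 was detected by AlphaScreen and IC50 calculated.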

HCT116 MTAP KO cells = test: Inhibitory activity against cell proliferation (CellTiter Glo, 6 days), HCT116 MTAP KO; format: cell-based; settings: for IC50: Homo sapiens, HCT-116, 144 h, HCT116 MTAP KO cells, 6 days, CellTiter Glo, read-out: HCT116 MTAP KO IC50; for Selectivity HCT 116-WT/ HCT116 MTAP KO: ratio of IC50 HCT116-WT / HCT116 MTAP KO
In short: (§1)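 250 cells/well, McCoy's 5A + 10% FBS, o/n 37°C 5% CO2; cpd 8-pt 4-fold from 10000 nM, 6 d; CTG lum on day 7; IC50 vs DMSO.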

HCT116-WT cells = test: Inhibitory activity against cell proliferation (CellTiter Glo, 6 days), HCT116-WT; format: cell-based; settings: 144 h, HCT116-WT cells, 6 days, CellTiter Glo; read-out: HCT116-WT IC50
In short: as §1

PRMT5-MTA, sequence (O14744 whole entry): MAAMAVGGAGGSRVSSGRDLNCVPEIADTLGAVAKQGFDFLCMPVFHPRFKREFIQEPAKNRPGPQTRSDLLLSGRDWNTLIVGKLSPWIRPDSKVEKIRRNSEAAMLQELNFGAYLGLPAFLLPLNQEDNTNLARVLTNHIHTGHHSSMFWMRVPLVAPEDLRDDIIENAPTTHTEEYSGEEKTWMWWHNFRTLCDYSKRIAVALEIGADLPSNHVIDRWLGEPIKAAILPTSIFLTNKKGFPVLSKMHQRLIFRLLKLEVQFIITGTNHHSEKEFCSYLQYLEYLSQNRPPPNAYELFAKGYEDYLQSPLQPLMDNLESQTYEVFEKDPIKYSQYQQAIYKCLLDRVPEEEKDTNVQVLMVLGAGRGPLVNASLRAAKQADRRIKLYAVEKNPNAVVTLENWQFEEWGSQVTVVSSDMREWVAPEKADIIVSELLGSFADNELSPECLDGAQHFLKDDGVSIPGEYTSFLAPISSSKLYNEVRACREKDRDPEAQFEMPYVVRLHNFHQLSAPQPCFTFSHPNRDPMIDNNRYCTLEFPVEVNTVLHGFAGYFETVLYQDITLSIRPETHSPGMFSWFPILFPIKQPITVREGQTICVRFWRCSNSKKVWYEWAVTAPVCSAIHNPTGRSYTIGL
PRMT5-MTA, sequence (Q9BQA1 whole entry partner): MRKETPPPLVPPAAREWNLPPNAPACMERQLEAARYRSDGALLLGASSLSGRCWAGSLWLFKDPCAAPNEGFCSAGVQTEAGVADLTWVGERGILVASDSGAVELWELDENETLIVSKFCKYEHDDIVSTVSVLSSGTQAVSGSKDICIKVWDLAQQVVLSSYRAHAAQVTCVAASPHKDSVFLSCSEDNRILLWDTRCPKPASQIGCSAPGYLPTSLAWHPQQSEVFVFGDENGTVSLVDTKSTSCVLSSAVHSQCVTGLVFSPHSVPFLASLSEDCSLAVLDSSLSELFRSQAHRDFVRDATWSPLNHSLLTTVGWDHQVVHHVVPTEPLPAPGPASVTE

`Cc1cc2nc(N)c3cnn(C)c3c2cc1C(=O)N1CC(C)CN1c1ccc(F)cc1F` (stereo not drawn) [Example 381, (4-amino-1,7-dimethyl-1H-pyrazolo[4,3-c]quinolin-8-yl)(2-(2,4-difluorophenyl)-4-methylpyrazolidin-1-yl)methanone] was tested, and the IC50 (PRMT5-MTA) was 4 nM, the IC50 (HCT116 MTAP KO cells) was 63 nM and the “Selectivity HCT 116-WT/ HCT116 MTAP KO” value (HCT116 MTAP KO cells) was 36.92. For the same compound, the IC50 (HCT116-WT cells) was 2330 nM.

With `Cc1cc2nc(N)c3cnn(C)c3c2cc1C(=O)N1CC(C)CN1c1ccccc1Cl` (stereo not drawn) [Example 382, (4-amino-1,7-dimethyl-1H-pyrazolo[4,3-c]quinolin-8-yl)(2-(2-chlorophenyl)-4-methylpyrazolidin-1-yl)methanone] the IC50 (PRMT5-MTA) was 4.8 nM, the IC50 (HCT116 MTAP KO cells) was 124 nM and the “Selectivity HCT 116-WT/ HCT116 MTAP KO” value (HCT116 MTAP KO cells) was 12.40. It also gave an IC50 (HCT116-WT cells) of 1540 nM.

In the case of `Cc1cc2nc(N)c3cnn(C)c3c2cc1C(=O)N1CC(C)CN1c1cccc(Cl)c1F` (stereo not drawn) [Example 383, (4-amino-1,7-dimethyl-1H-pyrazolo[4,3-c]quinolin-8-yl)(2-(3-chloro-2-fluorophenyl)-4-methylpyrazolidin-1-yl)methanone], the IC50 (PRMT5-MTA) is reported as 6 nM, the IC50 (HCT116 MTAP KO cells) is reported as 50 nM and the “Selectivity HCT 116-WT/ HCT116 MTAP KO” value (HCT116 MTAP KO cells) is reported as 35.34. The IC50 (HCT116-WT cells) was 1770 nM.

In the case of `Cc1cc2nc(N)c3cnn(C)c3c2cc1C(=O)N1CC(C)CN1c1ccc(OC(F)(F)F)cn1` (stereo not drawn) [Example 384, (4-amino-1,7-dimethyl-1H-pyrazolo[4,3-c]quinolin-8-yl)(4-methyl-2-(5-(trifluoromethoxy)pyridin-2-yl)pyrazolidin-1-yl)m ethanone], the IC50 (PRMT5-MTA) is reported as 4.1 nM, the IC50 (HCT116 MTAP KO cells) is reported as 238 nM and the “Selectivity HCT 116-WT/ HCT116 MTAP KO” value (HCT116 MTAP KO cells) is reported as 14.35. For the same compound, the IC50 (HCT116-WT cells) was 3420 nM.

With `CCOc1ccc(N2CC(C)CN2C(=O)c2cc3c(cc2C)nc(N)c2cnn(C)c23)nn1` (stereo not drawn) [Example 385, (4-amino-1,7-dimethyl-1H-pyrazolo[4,3-c]quinolin-8-yl)(2-(6-ethoxypyridazin-3-yl)-4-methylpyrazolidin-1-yl)methanone] the IC50 (PRMT5-MTA) was 5.4 nM, the IC50 (HCT116 MTAP KO cells) was 104 nM and the “Selectivity HCT 116-WT/ HCT116 MTAP KO” value (HCT116 MTAP KO cells) was 36.22. It also gave an IC50 (HCT116-WT cells) of 3770 nM.

`CC1CN(C(=O)c2cc3c(cc2Cl)nc(N)c2cnn(C)c23)N(c2ccccc2F)C1` (stereo not drawn) [Example 386, (4-amino-7-chloro-1-methyl-1H-pyrazolo [4,3-c]quinolin-8-yl)(2-(2-fluorophenyl)-4-methylpyrazolidin-1-yl)methanone] was tested, and the IC50 (PRMT5-MTA) was 6.2 nM, the IC50 (HCT116 MTAP KO cells) was 13 nM and the “Selectivity HCT 116-WT/ HCT116 MTAP KO” value (HCT116 MTAP KO cells) was 25.85. The IC50 (HCT116-WT cells) was 336 nM.

In the case of `Cc1cc2nc(N)c3cnn(C)c3c2cc1C(=O)N1CC(C)CN1c1cncc(F)c1` (stereo not drawn) [Example 387, (4-amino-1,7-dimethyl-1H-pyrazolo[4,3-c]quinolin-8-yl)(2-(5-fluoropyridin-3-yl)-4-methylpyrazolidin-1-yl)methanone], the IC50 (PRMT5-MTA) is reported as 3.7 nM, the IC50 (HCT116 MTAP KO cells) is reported as 90 nM and the “Selectivity HCT 116-WT/ HCT116 MTAP KO” value (HCT116 MTAP KO cells) is reported as 27.40. It also gave an IC50 (HCT116-WT cells) of 2470 nM.

In the case of `Cc1cc2nc(N)c3cnn(C)c3c2cc1C(=O)N1CCC(C)N1c1ncc(Br)cc1F` (stereo not drawn) [Example 390, (4-amino-1,7-dimethyl-1H-pyrazolo[4,3-c]quinolin-8-yl)(2-(5-bromo-3-fluoropyridin-2-yl)-3-methylpyrazolidin-1-yl)metha none], the IC50 (PRMT5-MTA) is reported as 8.6 nM, the IC50 (HCT116 MTAP KO cells) is reported as 233 nM and the “Selectivity HCT 116-WT/ HCT116 MTAP KO” value (HCT116 MTAP KO cells) is reported as over 42.92. The IC50 (HCT116-WT cells) was over 10000 nM.

For `Cc1cc2nc(N)c3cnn(C)c3c2cc1C(=O)N1C(C)CCN1c1ncc(Br)cc1F` (stereo not drawn) [Example 391, (4-amino-1,7-dimethyl-1H-pyrazolo[4,3-c]quinolin-8-yl)(2-(5-bromo-3-fluoropyridin-2-yl)-5-methylpyrazolidin-1-yl)metha none], the IC50 (PRMT5-MTA) was 7.4 nM, the IC50 (HCT116 MTAP KO cells) was 84 nM and the “Selectivity HCT 116-WT/ HCT116 MTAP KO” value (HCT116 MTAP KO cells) was 33.94. It also gave an IC50 (HCT116-WT cells) of 2850 nM.

In the case of `CC1CN(C(=O)c2cc3c(cc2F)nc(N)c2cnn(C)c23)N(c2ncccc2F)C1` (stereo not drawn) [Example 393, (4-amino-7-fluoro-1-methyl-1H-pyrazolo [4,3-c]quinolin-8-yl)(2-(3-fluoropyridin-2-yl)-4-methylpyrazolidin-1-yl)methanone], the IC50 (PRMT5-MTA) is reported as 3.4 nM, the IC50 (HCT116 MTAP KO cells) is reported as 9.8 nM and the “Selectivity HCT 116-WT/ HCT116 MTAP KO” value (HCT116 MTAP KO cells) is reported as 51.22. The IC50 (HCT116-WT cells) was 502 nM.

For `Cc1cc2nc(N)c3cnn(C)c3c2cc1C(=O)N1CC(C)CN1c1ncncc1F` (stereo not drawn) [Example 395, (4-amino-1,7-dimethyl-1H-pyrazolo[4,3-c]quinolin-8-yl)(2-(5-fluoropyrimidin-4-yl)-4-methylpyrazolidin-1-yl)methanone], the IC50 (PRMT5-MTA) was 4.9 nM, the IC50 (HCT116 MTAP KO cells) was 66 nM and the “Selectivity HCT 116-WT/ HCT116 MTAP KO” value (HCT116 MTAP KO cells) was 41.05. For the same compound, the IC50 (HCT116-WT cells) was 2710 nM.

`Cc1cc2nc(N)c3cnn(C)c3c2cc1C(=O)N1CC(C)CN1c1ccccc1` (stereo not drawn) [Example 396, (4-amino-1,7-dimethyl-1H-pyrazolo[4,3-c]quinolin-8-yl)(4-methyl-2-phenylpyrazolidin-1-yl)methanone] was tested, and the IC50 (PRMT5-MTA) was 5.2 nM, the IC50 (HCT116 MTAP KO cells) was 298 nM and the “Selectivity HCT 116-WT/ HCT116 MTAP KO” value (HCT116 MTAP KO cells) was 16.21. For the same compound, the IC50 (HCT116-WT cells) was 4830 nM.

With `Cc1cc2nc(N)c3cnn(C)c3c2cc1C(=O)N1CC(C)CN1c1cnccn1` (stereo not drawn) [Example 397, (4-amino-1,7-dimethyl-1H-pyrazolo[4,3-c]quinolin-8-yl)(4-methyl-2-(pyrazin-2-yl)pyrazolidin-1-yl)methanone] the IC50 (PRMT5-MTA) was 15 nM, the IC50 (HCT116 MTAP KO cells) was 197 nM and the “Selectivity HCT 116-WT/ HCT116 MTAP KO” value (HCT116 MTAP KO cells) was 34.46. For the same compound, the IC50 (HCT116-WT cells) was 6790 nM.

With `CC1CN(C(=O)c2cc3c(cc2Cl)nc(N)c2cnn(C)c23)N(c2ncccc2F)C1` (stereo not drawn) [Example 398, (4-amino-7-chloro-1-methyl-1H-pyrazolo [4,3-c]quinolin-8-yl)(2-(3-fluoropyridin-2-yl)-4-methylpyrazolidin-1-yl)methanone] the IC50 (PRMT5-MTA) was 3.9 nM, the IC50 (HCT116 MTAP KO cells) was 39 nM and the “Selectivity HCT 116-WT/ HCT116 MTAP KO” value (HCT116 MTAP KO cells) was 41.49. The IC50 (HCT116-WT cells) was 1620 nM.

With `Cc1cc2nc(N)c3cnn(C)c3c2cc1C(=O)N1CC(C)CN1c1c(F)cccc1F` (stereo not drawn) [Example 400, (4-amino-1,7-dimethyl-1H-pyrazolo[4,3-c]quinolin-8-yl)(2-(2,6-difluorophenyl)-4-methylpyrazolidin-1-yl)methanone] the IC50 (PRMT5-MTA) was 5.8 nM, the IC50 (HCT116 MTAP KO cells) was 33 nM and the “Selectivity HCT 116-WT/ HCT116 MTAP KO” value (HCT116 MTAP KO cells) was 56.79. It also gave an IC50 (HCT116-WT cells) of 1870 nM.

In the case of `COc1ccccc1N1CC(C)CN1C(=O)c1cc2c(cc1C)nc(N)c1cnn(C)c12` (stereo not drawn) [Example 401, (4-amino-1,7-dimethyl-1H-pyrazolo[4,3-c]quinolin-8-yl)(2-(2-methoxyphenyl)-4-methylpyrazolidin-1-yl)methanone], the IC50 (PRMT5-MTA) is reported as 3.5 nM, the IC50 (HCT116 MTAP KO cells) is reported as 204 nM and the “Selectivity HCT 116-WT/ HCT116 MTAP KO” value (HCT116 MTAP KO cells) is reported as over 49.02. It also gave an IC50 (HCT116-WT cells) of over 10000 nM.

`CC1CN(C(=O)c2cc3c(cc2Cl)nc(N)c2cnn(C)c23)N(c2cccc(F)c2F)C1` (stereo not drawn) [Example 402, (4-amino-7-chloro-1-methyl-1H-pyrazolo [4,3-c]quinolin-8-yl)(2-(2,3-difluorophenyl)-4-methylpyrazolidin-1-yl)methanone] was tested, and the IC50 (PRMT5-MTA) was 6.4 nM, the IC50 (HCT116 MTAP KO cells) was 24 nM and the “Selectivity HCT 116-WT/ HCT116 MTAP KO” value (HCT116 MTAP KO cells) was 23.71. The IC50 (HCT116-WT cells) was 569 nM.

In the case of `Cc1cc2nc(N)c3cnn(C)c3c2cc1C(=O)N1CC(C)CN1c1cccc(Cl)n1` (stereo not drawn) [Example 403, (4-amino-1,7-dimethyl-1H-pyrazolo[4,3-c]quinolin-8-yl)(2-(6-chloropyridin-2-yl)-4-methylpyrazolidin-1-yl)methanone], the IC50 (PRMT5-MTA) is reported as 3.8 nM, the IC50 (HCT116 MTAP KO cells) is reported as 14 nM and the “Selectivity HCT 116-WT/ HCT116 MTAP KO” value (HCT116 MTAP KO cells) is reported as 19.79. It also gave an IC50 (HCT116-WT cells) of 277 nM.
